Tests used:
HL-60 cells = assay: MTT cell growth inhibition, HL-60; format: cell-based; settings: Homo sapiens, HL-60, 72 hours
Procedure: FIG. 2. Effect of Orsaponin (OSW-1) on cell growth in two human cancer cell lines including a leukemia and a lymphoma cell line. HL-60 (leukemia) and Raji cells (lymphoma) in exponentially growing phase were treated with the indicated concentrations of OSW-1 for 72 hours. Cell growth inhibition was measured by MTT assay.
Cells and Cell Lines. Various cancer cell lines were used including the human leukemia cell lines HL-60 and ML-1 cells; human lymphoma cell line Raji; human pancreatic cancer cells AsPC-1; and human ovarian cancer cells SKOV3; human colon cancer cells HCT116; as well as isolated CLL cells from patients; and lymphocytes from normal donors. Cells were grown and maintained as per protocols known in the art using appropriate cell culture media and supplements.
1. MTT Assays. For these assays either cancer cell lines were used. Alternatively, mononuclear cells from peripheral blood samples of CLL patients or normal donors were separated by Ficoll Hipaque fractionation and resuspended in DMEM complete medium. […] After the indicated number of days (usually 3 days or 72 hours) of exposure to OSW-1, cell survival was assessed by the addition of the MTT dye to the wells. […] Survival of cells under orsaponin treatment was evaluated as a percentage of control cell growth. […]

C6F cells = assay: Mitochondrial transmembrane potential (rhodamine-123), C6F; format: cell-based, human; settings: 0.5 nM
Procedure: FIG. 10. Effect of Orsaponin (OSW-1) on Mitochondrial transmembrane potential HL-60 cells. The parental HL-60 line and its mutant with mitochondrial respiration defect, clone C6F, were incubated with 0.5 nM OSW-1 for the indicated times. Change in mitochondrial transmembrane potential was measured by cytometry analysis, using rhodamine-123 as a potential-sensitive fluorescent dye.
(§1) 3. Analysis of the Mitochondrial Transmembrane Potential. To evaluate the role of mitochondrial respiration in the cytotoxicity of OSW-1, changes in the potential of mitochondrial membrane were analyzed. Following the treatment of cells with OSW-1 for different time periods, cells were incubated with rhodamine-123 which is a potential-sensitive dye. Cytometric analysis was used to record changes in mitochondrial potential. […]
The effect of OSW-1 on mitochondrial transmembrane potential in HL-60 cells and C6F cells was also analyzed by incubating the cells with 0.5 nM OSW-1 for the 4, 16 and 24 hours. Change in mitochondrial transmembrane potential was measured by flow cytometry analysis, using rhodamine-123 as a potential-sensitive fluorescent dye and are depicted in FIG. 10.

[1] = system: C19 cells (ML-1 mutant with mitochondrial respiration defect); assay: Mitochondrial transmembrane potential (rhodamine-123), C19; format: cell-based, human; settings: C19, 1 nM
Procedure: FIG. 11. Effect of orsaponin (OSW-1) on mitochondrial transmembrane potential ML-1 cells. The parental ML-1 line and its mutant with mitochondrial respiration defect, clone C19, were incubated with 1 nM OSW-1 for the indicated times. Change in mitochondrial transmembrane potential was measured by cytometry analysis, using rhodamine-123 as a potential-sensitive fluorescent probe.
as §1
The effect of OSW-1 on mitochondrial transmembrane potential of ML-1 cells and the corresponding mitochondrial respiration defective mutant cell line C19 were analyzed by incubating with 1 nM OSW-1 for 4, 16 and 24 hours. Change in mitochondrial transmembrane potential was measured by cytometry analysis, using rhodamine-123 as a potential-sensitive fluorescent probe and are depicted in FIG. 11.

[2] = system: cancer cells of pancreatic, ovarian, colon, and CLL origins; assay: Cytotoxicity in cancer cells, summary statement; format: cell-based; settings: Homo sapiens, read-out: IC50, kills cancer cells
Text: The results were also observed in vivo in mouse models of ovarian cancer where animal survival was improved, and tumor volume reductions were observed

[3] = system: human promyelocytic leukemia HL-60 cells; settings: Mimaki et al., 1997; read-out: IC50, cytostatic activity against HL-60; cited from earlier work

In the case of `COc1ccc(C(=O)OC2C(OC3C(O)COC(O[C@H]4C[C@H]5[C@@H]6CC=C7C[C@@H](O)CC[C@]7(C)[C@H]6CC[C@]5(C)[C@@]4(O)[C@H](C)C(=O)CCC(C)C)C3OC(C)=O)OCC(O)C2O)cc1` (stereo partly drawn) [OSW-1, 3β, 16β, 17 α-trihydroxycholost-5-en-22-one 16-O-(2-O-4-methoxybenzoyl-β-D-xylopyranosyl)-(1->3)-(2-O-acetyl-α-L-arabinopyranoside)], the IC50 (HL-60 cells) is reported as less than 0.5 nM, the “change in mitochondrial transmembrane potential” value (C6F cells) is reported as “did not show significant loss of mitochondrial transmembrane potential” and the “change in mitochondrial transmembrane potential” value [1] is reported as “loss of mitochondrial transmembrane potential in only a small portion the cells”. For the same compound, the IC50 [2] was less than 1 nM and the IC50 [3] was 0.1 to 0.3 nM.

Reference: US20050004044A1, “Use of orsaponin [3beta, 16beta, 17 alpha-trihydroxycholost-5-en-22-one 16-0-(2-0-4-methoxybenzoyl-beta-D-xylopyranosyl)-(1->3)-(2-0-acetyl-alpha-L-arabinopyranoside)] or OSW-1 and its derivatives for cancer therapeutics” (priority 2003, published 2005)
